Data as given in US10617612B2, “Composition comprising decanal or as active ingredients for preventing hair loss or stimulating hair growth” (INDUSTRY-ACADEMIC COOPERATION FOUNDATION, YONSEI UNIVERSITY, priority 2016, dated 2020).

Key:
[1] = Measurement of body weight change; details: 3 mg/mouse/day applied to back skin once a day
Experimental: The animals were kept in a temperature of 21±2.0° C., relative humidity of 50±5%, and 12 hours of day and night cycles. During the experiment, the mice were fed with a regular solid feed (chow) with water freely.
To examine the effect of promoting hair growth, 8-week-old mouse of telogen hair showing pink color of dorsal skin was used. After removing the hair of the mouse backing using a clipper for a mouse, the sample was applied once a day at 4:00 PM for four weeks. Decanal (3 mg/mouse/day) which is experimental material and minoxidil (3 mg/mouse/day) used as a reference drug were dissolved in vehicle (ethanol:water:propylene glycol=5:3:2) and applied, and the vehicle only was applied to the negative control group.
The body weight of the experimental animals was measured weekly from immediately before application of the hair growth treatment to the end of application.

[2] = tested on: GSK3β (glycogen synthase kinase 3β); assay: RT-PCR gene expression in back skin tissue; assay type: in vivo, mouse; details: 4 weeks application
Experimental: (§1) To quantitatively analyze total RNA in skin tissue of experimental animal, 1 mL of Trizol solution was added to 50-100 mg of skin tissue and homogenized, followed by centrifugation at 12,000×g for 10 minutes at 4° C. After transferring the supernatant liquid to a new tube, 200 μl of chloroform was added and the mixture was vigorously shaken. This process above was repeated twice, then the supernatant liquid was transferred to a new tube and isoprophanol and the supernatant liquid were added at a ratio of 1:1. The mixture was shaken 10 times and then allowed to stand at room temperature for 10 minutes, and the supernatant liquid was removed after centrifugation at 12,000×g for 10 minutes at 4° C., and 1 ml of 70% ethanol was added to the remaining precipitate, and the precipitate was centrifuged at 7,500×g and 4° C. for 5 minutes. After removing the ethanol, the tube containing the RNA precipitate was dried at room temperature for 5 minutes, and the RNA pellet was dissolved using nuclease free water. The concentration of RNA extracted at 260 nm and 280 nm wavelengths was measured using a UV/VIS spectrophotometer (Beckman coulter, DU730), and agarose gel electrophoresis was performed to confirm the integrity of the RNA sample.
(§2) cDNA was synthesized by performing reverse transcription using oligo dT primer and superscript reverse transcriptase (GIBCOBRL, Gaithersburg, Md., USA) after RNA isolation. The cDNA obtained by reverse transcription was determined as a template, and PCR was performed using the 5′ and 3′ flanking sequence of the gene cDNA to be amplified as primers. In this case, primers required were synthesized by a manufacture specialized company of primers (Bionia Co., Ltd., Korea), and the primer sequences were illustrated in Table 1 below. 2 μl of the reacted cDNA reaction mixture and 2.5 units of Taq polymerase (Takara, Japan) were added to a mixture prepared by adding 5 μl of 10× reaction buffer [100 mM KCL, 20 mM Tris-HCL (pH 8.0), 2.5 mM MgCl2], 4 μl of 10 mM dNTP, and 1 μl each of 0.2 μM sense and antisense primer, and the volume was adjusted using 50 μl of distilled water, then PCR was performed using a PCR instrument. PCR conditions were set at 94° C. for 4 minutes, 94° C. for 30 seconds, 30 cycles [52° C. for 30 seconds, 72° C. for 45 seconds] and 72° C. for 10 minutes. Since 1 μl of the amplified product was electrophoresed on 1% agarose gel to check the DNA band, gene expression level was evaluated.
(§3) The expression change of Wnt/β-catenin signal transduction material which was known as hair growth promotion mechanism in the back skin tissue of the mice to which the experimental material was applied for 4 weeks, was analyzed by RT-PCR.

[3] = tested on: Axin; assay: RT-PCR gene expression in back skin tissue; assay type: in vivo, mouse; details: 4 weeks application
Experimental: as §1, §2, §3

[4] = tested on: Wnt10b; assay: RT-PCR gene expression in back skin tissue; assay type: in vivo, mouse; details: 4 weeks application
Experimental: as §1, §2, §3

[5] = tested on: LRP5 (low-density lipoprotein receptor-related protein 5); assay: RT-PCR gene expression in back skin tissue; assay type: in vivo, mouse; details: 4 weeks application
Experimental: as §1, §2, §3

[6] = tested on: FZD1 (frizzled receptor 1); assay: RT-PCR gene expression in back skin tissue; assay type: in vivo, mouse; details: 4 weeks application
Experimental: as §1, §2, §3

[7] = tested on: β-catenin; assay: RT-PCR gene expression in back skin tissue; assay type: in vivo, mouse; details: 4 weeks application
Experimental: as §1, §2, §3

[8] = tested on: vascular endothelial growth factor (VEGF); assay: RT-PCR gene expression in back skin tissue; assay type: in vivo, mouse; details: 4 weeks application
Experimental: as §1
as §2, with “PCR conditions were set at 94° C. for 4 minutes, 94° C. for 30 seconds, 30 cycles [52° C. for 30 seconds, 72° C. for 45 seconds] and 72° C. for 10 minutes.” left out
(§4) In addition, to investigate hair growth promoting action mechanism of Decanal, the expression change of endocrine factors affecting hair growth was evaluated. The gene expression level of insulin-like growth factor 1 (IGF1), vascular endothelial growth factor (VEGF), hepatocyte growth factor (HGF), and keratinocyte growth factor (KGF), which were growth factors affecting hair growth promotion in back skin tissue, was evaluated. […]

[9] = tested on: insulin-like growth factor 1 (IGF1); assay: RT-PCR gene expression in back skin tissue; assay type: in vivo, mouse; details: 4 weeks application
Experimental: as §1
as §2, with “PCR conditions were set at 94° C. for 4 minutes, 94° C. for 30 seconds, 30 cycles [52° C. for 30 seconds, 72° C. for 45 seconds] and 72° C. for 10 minutes.” left out
as §4

[10] = tested on: hepatocyte growth factor (HGF); assay: RT-PCR gene expression in back skin tissue; assay type: in vivo, mouse; details: 4 weeks application
Experimental: as §1
as §2, with “PCR conditions were set at 94° C. for 4 minutes, 94° C. for 30 seconds, 30 cycles [52° C. for 30 seconds, 72° C. for 45 seconds] and 72° C. for 10 minutes.” left out
as §4

[11] = tested on: keratinocyte growth factor (KGF); assay: RT-PCR gene expression in back skin tissue; assay type: in vivo, mouse; details: 4 weeks application
Experimental: as §1
as §2, with “PCR conditions were set at 94° C. for 4 minutes, 94° C. for 30 seconds, 30 cycles [52° C. for 30 seconds, 72° C. for 45 seconds] and 72° C. for 10 minutes.” left out
as §4

[12] = tested on: β-catenin; assay: Western blot of back skin tissue; assay type: in vivo, mouse; details: 4 weeks application
Experimental: A predetermined amount of visceral fat or liver tissue was homogenized with liquid nitrogen and lysis buffer in a mortar, and then centrifuged at 13,000×g at 4° C. for 20 minutes. And the middle layer was taken and the protein was quantified by the Bradford method. 50 μg of protein was electrophoresed on SDS polyacrylamide gel, electro blotted onto PVDF hyper film, and reacted with β-catenin and β-actin antibody (Cell Signaling Technology, Danvers, Mass., USA), respectively. Signals of each protein were visualized using a chemiluminescent detection system (Amersham) and the band thickness was quantified using Quantity One Analysis Software (Bo-Rad Laboratories).
The Wnt/β-catenin Signal transduction pathway is known to be involved in promoting entry into the anagen by regulating hair follicle cycle. The expression level of β-catenin was analyzed by western blotting in the back skin tissues in order to determine whether the signal transduction pathway related to hair growth promotion was activated.

[13] = tested on: hair follicles of back skin; assay: Histological analysis of back skin (Hematoxylin-Eosin, hair follicle number and diameter); assay type: in vivo; details: back skin after 4 weeks of application, 3 mg/mouse/day
Excerpt: After 4 weeks of application, the animals were sacrificed and the back skin tissue sample was extracted with scissors and forceps around the area where the experimental material was applied, and fixed with formalin. After each step was dehydrated with alcohol and xylene, the back skin tissue sample was embedded with paraffin, and was cut into 5 μm slice using a microtome, and then paraffin was removed with alcohol and xylene. […] A pathology speculum specialist was examined to evaluate the hair growth cycle, and quantity of hair follicle and diameter were measured on an optical microscope.
The results of measurement of the hair follicle number in each experimental group under an optical microscope of magnification of 40 are illustrated in FIG. 3.

[14] = tested on: nematode parasitic on plant roots; details: reported; cited from earlier work
[15] = tested on: embryos of sea urchins and copepods; details: reported physiological activity; cited from earlier work
[16] = tested on: C57BL/6N mice; assay: Hair regrowth in mice with back hair removed, skin application (visual observation, hair length); assay type: in vivo; details: 3 mg/mouse/day on back skin once a day
Experimental: To visually confirm the state of hair growth, after the animals were lightly anesthetized with ether, the back was photographed, at the end of one week, two weeks, three weeks, and four weeks after application begins, Hair length was measured using a ruler to evaluate the degree of hair growth.

Compound: Nc1cc(N2CCCCC2)nc(N)[n+]1[O-] [MXD, minoxidil, reference compound]
- Body weight after 4 weeks of application, difference between experimental groups [1]: not significantly different

Compound: CCCCCCCCCC=O [DC, Decanal]
- GSK3β gene expression compared to negative control [2]: significantly decreased
- Axin gene expression compared to negative control [3]: significantly decreased
- Wnt10b gene expression compared to negative control [4]: significantly increased
- LRP5 gene expression compared to negative control [5]: significantly increased
- FZD1 gene expression compared to negative control [6]: significantly increased
- β-catenin gene expression compared to negative control [7]: significantly increased
- VEGF gene expression compared to negative control [8]: significantly increased expression
- IGF1 gene expression compared to negative control [9]: significantly increased expression
- HGF gene expression compared to negative control [10]: significantly increased expression
- KGF gene expression compared to negative control [11]: significantly increased expression
- β-catenin protein expression effect compared to minoxidil group [12]: superior to the minoxidil group
- Increase of β-catenin protein expression compared to negative control ([12]; 3 mg/mouse/day): 79%
- Histological appearance of hair follicles [13]: the hair follicle was lengthened and appeared outside the skin
- Increase of hair follicle diameter compared to negative control ([13]; image analysis): 33%
- Increase of number of hair follicles compared to negative control ([13]; magnification of 40): 193%
- Nematicidal activity [14]: strong nematicidal activity
- Body weight after 4 weeks of application, difference between experimental groups [1]: not significantly different
- Effect on embryos of sea urchins and copepods [15]: a reproductive failure was induced by inducing apoptosis
- Increase of hair length compared to negative control after 4 weeks ([16]; 4 weeks, p<0.001): 438%
- Visual state of hair growth after 4 weeks ([16]; 4 weeks, vs negative control): hair was grown evenly and heartily in the larger number of individuals compared to the negative control group
- Hair length compared to negative control, from the 2nd week ([16]; measured weekly): significantly increased from the 2nd week
- Onset of hair growth (visual observation) ([16]; negative control: no hair after 2 weeks): hair began to grow from the 2nd week after application
